Results as given in ChEMBL document CHEMBL1201862, “PubChem BioAssay data set” (2004).
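Step 1: Grow cells in 96-well plates. Step 2: Expose to compound for 48 hours at 5 concentrations. Step 3: Interpolate endpoints linearly; if unreached, use highest concentration. GI50: concentration for 50% inhibition of growth.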 Activity calls are given as the source filed them. Rule as the data show it: active = GI50 up to about 1.1 µM and inactive = higher.

Experiments:
Experiment in all cases: inhibition of tumour cell growth, NCI panel, 48 h
786-0 = system: 786-0
COLO 205 = system: COLO 205
HCT-15 = system: HCT-15
HL-60 = system: HL-60
IGROV-1 = system: IGROV-1
M14 = system: M14
M19-MEL = system: M19-MEL
MOLT-4 = system: MOLT-4
Malme-3M = system: Malme-3M
OVCAR-8 = system: OVCAR-8
SF-268 = system: SF-268
SK-MEL-28 = system: SK-MEL-28
UO-31 = system: UO-31
A498 = system: A498
SNB-75 = system: SNB-75
CAKI-1 = system: CAKI-1
NCI-H226 = system: NCI-H226
MCF7 = system: MCF7
MDA-MB-231 = system: MDA-MB-231
T47D = system: T47D

| SMILES | GI50 (786-0) | GI50 (COLO 205) | GI50 (HCT-15) [µM] | GI50 (HL-60) | GI50 (IGROV-1) | GI50 (M14) | GI50 (M19-MEL) | GI50 (MOLT-4) | GI50 (Malme-3M) | GI50 (OVCAR-8) | GI50 (SF-268) | GI50 (SK-MEL-28) | GI50 (UO-31) | GI50 (A498) | GI50 (SNB-75) | GI50 (CAKI-1) | GI50 (NCI-H226) | GI50 (MCF7) | GI50 (MDA-MB-231) | GI50 (T47D) |
| --- | --- | --- | --- | --- | --- | --- | --- | --- | --- | --- | --- | --- | --- | --- | --- | --- | --- | --- | --- | --- |
| COc1ccc(N(C)Sc2ccccc2)cc1 | 16.9 µM (inactive) | > 100 µM (inactive) | 38.1 | 15.1 µM (inactive) | 19.9 µM (inactive) | 52.5 µM (inactive) | 69 µM (inactive) | 13.1 µM (inactive) | > 100 µM (inactive) | 49.9 µM (inactive) | 27.4 µM (inactive) | 55.2 µM (inactive) | 34.8 µM (inactive) | – | – | – | – | – | – | – |
| COCOCCCCCO[Si](C)(C)C(C)(C)C | 14.4 µM (inactive) | 19 µM (inactive) | 17.7 | 7.1 µM (inactive) | 32.6 µM (inactive) | 19 µM (inactive) | 28.7 µM (inactive) | 16.1 µM (inactive) | 18.2 µM (inactive) | 19.5 µM (inactive) | 5.19 µM (inactive) | 35.1 µM (inactive) | 20.5 µM (inactive) | 29.4 µM (inactive) | 30.3 µM (inactive) | – | – | – | – | – |
| CN(C)CCNC(=O)c1cccc2c1nc(-c1ccccn1)c1ccccc12 | 18.9 µM (inactive) | 12.3 µM (inactive) | 13.8 | 16.4 µM (inactive) | 16.1 µM (inactive) | 15.8 µM (inactive) | 18.1 µM (inactive) | 3.87 µM (inactive) | – | 16 µM (inactive) | 23.3 µM (inactive) | 15.6 µM (inactive) | 10.4 µM (inactive) | 13.6 µM (inactive) | 21.3 µM (inactive) | 18.1 µM (inactive) | > 10 µM (inactive) | – | – | – |
| CCn1c(CSc2nc(-c3ccccc3)c(-c3ccccc3)[nH]2)n[nH]c1=S | > 100 µM (inactive) | > 100 µM (inactive) | > 100 | > 100 µM (inactive) | > 100 µM (inactive) | > 100 µM (inactive) | > 100 µM (inactive) | > 100 µM (inactive) | > 100 µM (inactive) | > 100 µM (inactive) | > 100 µM (inactive) | > 100 µM (inactive) | > 100 µM (inactive) | > 100 µM (inactive) | > 100 µM (inactive) | – | > 100 µM (inactive) | – | – | – |
| COc1ccc(C(=O)NCCC2=CCCCC2)cc1 | > 100 µM (inactive) | > 100 µM (inactive) | > 100 | – | > 100 µM (inactive) | – | > 100 µM (inactive) | – | > 100 µM (inactive) | > 100 µM (inactive) | > 100 µM (inactive) | > 100 µM (inactive) | – | 85.7 µM (inactive) | > 100 µM (inactive) | > 100 µM (inactive) | – | – | – | – |
| O=C(c1ccc(Cl)cc1)c1ccc(OCCCOc2ccc(C(=O)c3ccc(Cl)cc3)cc2)cc1 | > 100 µM (inactive) | > 100 µM (inactive) | > 100 | > 100 µM (inactive) | > 100 µM (inactive) | > 100 µM (inactive) | > 100 µM (inactive) | > 100 µM (inactive) | > 100 µM (inactive) | > 100 µM (inactive) | > 100 µM (inactive) | > 100 µM (inactive) | – | – | 33.6 µM (inactive) | > 100 µM (inactive) | > 100 µM (inactive) | – | – | – |
| CC12N=NN(c3ccc([N+](=O)[O-])cc3)C1(O)c1ccccc1C2=O (configuration not stated) | > 100 µM (inactive) | > 100 µM (inactive) | > 100 | > 100 µM (inactive) | > 100 µM (inactive) | > 100 µM (inactive) | > 100 µM (inactive) | – | > 100 µM (inactive) | > 100 µM (inactive) | > 100 µM (inactive) | – | > 100 µM (inactive) | – | – | – | > 100 µM (inactive) | – | – | – |
| COc1ccc(O)c(C(=O)CCC(=O)O)c1 | > 100 µM (inactive) | > 100 µM (inactive) | > 100 | > 100 µM (inactive) | > 100 µM (inactive) | > 10 µM (inactive) | > 100 µM (inactive) | > 100 µM (inactive) | > 100 µM (inactive) | > 100 µM (inactive) | > 100 µM (inactive) | > 100 µM (inactive) | > 100 µM (inactive) | > 100 µM (inactive) | > 100 µM (inactive) | – | > 100 µM (inactive) | – | – | – |
| CC1CC(C)C(=O)C(C(=O)CC2CC(=O)NC2=O)C1 (configuration not stated) | > 100 µM (inactive) | > 100 µM (inactive) | – | > 100 µM (inactive) | > 100 µM (inactive) | > 100 µM (inactive) | > 100 µM (inactive) | – | > 100 µM (inactive) | > 100 µM (inactive) | > 100 µM (inactive) | > 100 µM (inactive) | > 100 µM (inactive) | > 100 µM (inactive) | > 100 µM (inactive) | > 100 µM (inactive) | > 100 µM (inactive) | – | – | – |
| COC(=N)C1(C#N)NC(c2ccsc2)C(C#N)(C#N)NC1c1ccsc1 (configuration not stated) | > 100 µM (inactive) | > 100 µM (inactive) | > 100 | 78.3 µM (inactive) | > 100 µM (inactive) | > 100 µM (inactive) | – | > 100 µM (inactive) | > 100 µM (inactive) | > 100 µM (inactive) | > 100 µM (inactive) | > 100 µM (inactive) | > 100 µM (inactive) | > 100 µM (inactive) | 88.5 µM (inactive) | > 100 µM (inactive) | > 100 µM (inactive) | > 100 µM (inactive) | 76.7 µM (inactive) | 80.2 µM (inactive) |
| COc1cc2c(cc1OC)[C@H]1C(=O)c3cc4c(cc3[C@H]1N(C)C2=O)OCO4 | 4.41 µM (inactive) | 6.14 µM (inactive) | 14.7 | 1.77 µM (inactive) | 11.2 µM (inactive) | 2.92 µM (inactive) | – | 0.3 µM (active) | 7.53 µM (inactive) | 30.4 µM (inactive) | 4.17 µM (inactive) | > 100 µM (inactive) | 1.42 µM (inactive) | 8.43 µM (inactive) | 8.77 µM (inactive) | 3.13 µM (inactive) | 1.81 µM (inactive) | 2.4 µM (inactive) | 28 µM (inactive) | > 28.2 µM (inactive) |
| CCCCCCCCCCC(O)C1CCC(C2CCC(C(O)CCCCC(O)CCCCCC(O)CC3=CC(C)OC3=O)O2)O1 (configuration not stated) | > 25 µM (inactive) | > 25 µM (inactive) | > 25 | 2.36 µM (inactive) | 3.72 µM (inactive) | > 25 µM (inactive) | – | 2.97 µM (inactive) | > 25 µM (inactive) | 4.51 µM (inactive) | 4 µM (inactive) | > 25 µM (inactive) | > 25 µM (inactive) | > 25 µM (inactive) | 5.16 µM (inactive) | > 25 µM (inactive) | 3.82 µM (inactive) | 1.18 µM (inactive) | > 25 µM (inactive) | > 11.8 µM (inactive) |
| O=C1c2ccccc2CC12Cc1ccc3c(c1C2)CCC3 (configuration not stated) | 20.6 µM (inactive) | 19 µM (inactive) | 14.6 | 12.6 µM (inactive) | 25.5 µM (inactive) | 19.1 µM (inactive) | – | 23.8 µM (inactive) | 13.6 µM (inactive) | 28.8 µM (inactive) | 30 µM (inactive) | 31 µM (inactive) | 23.4 µM (inactive) | 85.3 µM (inactive) | 20.3 µM (inactive) | 26.8 µM (inactive) | 22.8 µM (inactive) | 16.9 µM (inactive) | 12 µM (inactive) | 19.1 µM (inactive) |
| COc1cccc(Nc2nc(-c3cccs3)nc3cc(OC)c(OC)cc23)c1 | 21.9 µM (inactive) | 23.2 µM (inactive) | 26.6 | 42.1 µM (inactive) | 21.6 µM (inactive) | 35.2 µM (inactive) | – | 53.6 µM (inactive) | 68.9 µM (inactive) | 23.9 µM (inactive) | 40.9 µM (inactive) | 31.5 µM (inactive) | 51.8 µM (inactive) | 18.9 µM (inactive) | 32.8 µM (inactive) | 29 µM (inactive) | 37.6 µM (inactive) | 24.5 µM (inactive) | 23 µM (inactive) | 42.8 µM (inactive) |
| N#Cc1c(N)c2c(c(-c3ccccc3)c1-c1ccccc1)C(=O)N(Nc1ccccc1)C2=O | 40.6 µM (inactive) | 20.7 µM (inactive) | 45.7 | 22.8 µM (inactive) | 34.8 µM (inactive) | 22.2 µM (inactive) | – | 27.4 µM (inactive) | > 100 µM (inactive) | 78.3 µM (inactive) | 59.2 µM (inactive) | 46.6 µM (inactive) | 24.7 µM (inactive) | 28.4 µM (inactive) | 38.4 µM (inactive) | 63.1 µM (inactive) | 37.3 µM (inactive) | 47.8 µM (inactive) | > 100 µM (inactive) | 19.4 µM (inactive) |
| Cc1ccc2c(c1)-c1c(C#N)c(N)nc(-c3ccccc3)c1CCS2(=O)=O | 6.38 µM (inactive) | 6.03 µM (inactive) | 4.54 | 0.204 µM (active) | 5.31 µM (inactive) | 4.54 µM (inactive) | – | 7.53 µM (inactive) | 2.45 µM (inactive) | 11.7 µM (inactive) | 22.9 µM (inactive) | 11.8 µM (inactive) | 13.4 µM (inactive) | 8.71 µM (inactive) | 3.72 µM (inactive) | 10.5 µM (inactive) | 5.36 µM (inactive) | 4.48 µM (inactive) | 17.5 µM (inactive) | 15.1 µM (inactive) |
| COc1ccc(Cc2c(-c3ccc(C)cc3)n[nH]c(=O)c2C2C(=O)N(c3ccccc3)N=C2c2ccccc2)cc1 (configuration not stated) | 35.7 µM (inactive) | 20.7 µM (inactive) | 42.9 | 39.3 µM (inactive) | 32.1 µM (inactive) | 26.9 µM (inactive) | – | 23.1 µM (inactive) | 24.1 µM (inactive) | 30.3 µM (inactive) | 38.9 µM (inactive) | 33 µM (inactive) | 39.7 µM (inactive) | 30.2 µM (inactive) | 23.9 µM (inactive) | 37.1 µM (inactive) | 29.4 µM (inactive) | 44.5 µM (inactive) | 35.6 µM (inactive) | > 65.6 µM (inactive) |
